Test results taken from patent US9200009B2, “Polycyclic pyridone derivative having integrase inhibitory activity” (Shionogi & Co., Ltd., priority 2011, dated 2015).

Assays:
[1] = target: integrase (Human immunodeficiency virus type 1 group M subtype B, UniProt P04585); test: Integrase inhibitory activity (Experimental Example 1); format: biochemical, HIV; conditions: integrase strand transfer ELISA, absorbance OD 405 nm
Description: (1) Preparation of DNA Solution
By the same method as that described in Experimental Example 1 of Patent Document 2, a substrate DNA solution (2 pmol/μl) and a target DNA solution (5 pmol/μl) were prepared. […] Each sequence of a substrate DNA and a target DNA is as described in the same Experimental Example.
(2) Measurement of Inhibition Rate (IC50 Value)
Onto Immobilizer—Streptavidin Plates (manufactured by NUNC) was added 100 μl of a substrate DNA solution (2 pmol/μl). After adsorbing at room temperature for 60 minutes under shaking, it was washed with a phosphate buffer two times.
Then, to each well prepared as described above were added 51 μl of a reaction solution prepared from 12 μl of a buffer (composition: 150 mM MOPS (pH 7.2), 75 mM MnCl2, 50 mM 2-mercaptoethanol, 25% glycerol, 500 μg/ml bovine serum albumin-fraction V) and 39 μl of distilled water. Then, 9 μl of an integrase solution (30 pmol) was added, and the mixture was mixed well. To a well as a negative control (NC) was added 9 μl of a diluting solution (composition: 50 mM Hepes (pH 8.0), 10 mM DTT, 10% Glycerol, 0.5 M NaCl), and this was mixed well using a plate mixer.
After the plate was incubated at 30° C. for 60 minutes, the reaction solution was discarded, followed by washing with 200 μl of a washing buffer (composition: 150 mM MOPS (pH 7.2), 50 mM 2-mercaptoethanol, 25% glycerol, 500 μg/ml bovine serum albumin-fraction V) three times.
Then, to each well were added 53 μl of a reaction solution prepared from 12 μl of a buffer (composition: 150 mM MOPS (pH 7.2), 75 mM MgCl2, 50 mM 2-mercaptoethanol, 25% glycerol, 500 μg/ml bovine serum albumin-fraction V) and 41 μl of distilled water. Further, 6 μl of a solution of a test compound in DMSO was added to each well, and 6 μl of DMSO was added to wells as a positive control (PC) and a negative control (NC), followed by mixing well using a plate mixer. After the plate was incubated at 30° C. for 60 minutes, 1 μl of a target DNA (5 pmol/μl) was added, and this was mixed well using a plate mixer.
After each plate was incubated at 30° C. for 10 minutes, the reaction solution was discarded, followed by washing with a phosphate buffer two times. Then, an anti-digoxigenin antibody labeled with alkaline phosphatase (sheep Fab fragment: manufactured by Boehringer) was diluted 2000-fold with an antibody diluting solution, 100 μl of the diluent was added to bind at 30° C. for 1 hour, and this was washed successively with a phosphate buffer containing 0.05% Tween 20 two times, and a phosphate buffer two times. […] C abs.: Absorbance of well of compound NC abs.: Absorbance of NC PC abs.: Absorbance of PC

[2] = system: HIV virus; test: Anti-HIV activity in MT-4 cells, MTT (Experimental Example 2); format: cell-based; conditions: Human immunodeficiency virus 1, MT4, 96 h, 50% HIV inhibition concentration, 4 days incubation
Description: Previously, a series of two-fold dilution on test samples were carried out in a 96-well plate (50 μL/well). Two plates were made for measuring anti-HIV activity and measuring cytotoxicity. For each agent, measurement in duplicate was carried out. An MT-4 cell suspension of 2.5×10^5/mL was dispensed at 100 μL/well onto the 96-well plate containing the test samples. An HIV virus solution was dispensed at 50 μL/well onto the 96-well plate containing the test samples and the cell. To the plate for measuring cytotoxicity, a culture solution was dispensed at 50 μL/well. It was mixed by a plate mixer, and then incubated in a CO2 incubator for 4 days. […] Thirty microliters of a MTT (3-(4,5-dimethylthiazol-2-yl)-2,5-diphenyltetrazolium bromide) solution was dispensed to each well.
A reaction was allowed to occur in a CO2 incubator for 1 hour. From each well, 150 μL of the supernatant was removed such that cells are not sucked. One-hundred and fifty microliters of a cell lysis solution was added thereto, and then it was mixed well by a plate mixer until the whole cells are lysed. The mixed 96-well plates were measured by a microplate reader at two wavelengths, 560 nm/690 nm. Based on the following calculation formula, 50% HIV inhibition concentration (EC50) was calculated. […]
Based on the following calculation formula, selectivity index was calculated. […]

| Compound | IC50 [1] [nM] | EC50 [2] [nM] |
| --- | --- | --- |
| C[C@@H]1CCO[C@H]2Cn3cc(-c4ncc(Cc5ccc(F)cc5)s4)c(=O)c(O)c3C(=O)N12 [Example 1] | 3.9 |  |
| C[C@@H]1CCO[C@H]2Cn3cc(-c4ncc(Cc5ccc(F)cc5F)s4)c(=O)c(O)c3C(=O)N12 [Example 2] | 2 | 2.8 |
| C[C@@H]1CCO[C@H]2Cn3cc(-c4nnc(Cc5ccc(F)cc5)s4)c(=O)c(O)c3C(=O)N12 [Example 3] | 3.8 |  |
| C[C@@H]1CCO[C@H]2Cn3cc(-c4nnc(Cc5ccc(F)cc5F)s4)c(=O)c(O)c3C(=O)N12 [Example 4] | 1.3 | 1.7 |
